# Like-named read-outs stand apart in the source and are kept apart here. Numbered stars: 1 amine (or outer) side, 2 acyl side, 3 side chain; on linkers, the order of the positions; unused ones are H or OH. Bridge positions count the residues as written; N and C are the ends. Square brackets hold non-standard residues; d marks the D form. Peptide text beside a SMILES is read from it. TBMB = c1c(C[*:1])cc(C[*:3])cc1C[*:2]; Phg = N[C@H](C(=O)O)c1ccccc1; Tle = CC(C)(C)[C@H](N)C(=O)O
# Assays:
# human plasma Kallikrein = biological target: T1, human plasma Kallikrein (Homo sapiens, UniProt P03952); test: Functional enzyme inhibition assay with fluorogenic substrate Z-PheArg-AMC, human plasma Kallikrein; type: biochemical
# T1 construct: purchased Stratech, UK
# Method in brief: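 Human plasma kallikrein at 26.5 pM was preincubated 15 minutes with test peptide in Tris/NaCl/MgCl2/CaCl2/BSA buffer pH7.4 at 25° C, then Z-PheArg-AMC added to 100 μM final in 4% DMSO.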
# rat plasma Kallikrein [1] = biological target: T2, rat plasma Kallikrein (Rattus norvegicus, UniProt P14272); test: Functional enzyme inhibition assay with fluorogenic substrate Z-PheArg-AMC, rat plasma Kallikrein; type: biochemical; settings: Table 26a, loop2 stability enhanced candidates
# T2 construct: polyhistidine tag (N, cleaved yes); proTEV cleavage site (pro-peptide linker) (N, cleaved yes); made in house; host or cells: HEK-293 (suspension-adapted)
# Protocol: Functional enzyme assays were conducted in 10 mM Tris HCl, 150 mM NaCl, 10 mM MgCl2, 1 mM CaCl2) and 1 mg/mL BSA (all Sigma UK) pH7.4 at 25° C. in solid black 96 well plates. Briefly 26.5 pM human plasma Kallikrein (purchased from Stratech, UK) or 500 pM rat plasma Kallikrein (expressed and purified in house) were incubated in the absence or presence of increasing concentrations of test peptide for 15 minutes before addition of the fluorogenic substrate Z-PheArg-AMC (Enzo Lifesciences UK) to a final assay concentration of 100 μM in 4% DMSO. Release of AMC was measured using a Pherastar FS (BMG Labtech), excitation 360 nm, emission 460 nm. The rate of the linear phase of the reaction, typically 5 to 45 minutes, was calculated in MARS data analysis software (BMG labtech). The rate was then used to calculate the IC50 and Ki in Prism (GraphPad). A four parameter inhibition non-linear regression equation was used to calculate the IC50.
# Peptides were dissolved as the TFA-salts in their powder form, and stock solutions were usually prepared in water. All solutions were centrifuged and filtered ([…] syringe filters) prior absorption measurement at 280 nm. Extinction coefficients were calculated based on the Trp/Tyr content of the peptide, and that of TMB (the TMB core, when contained in a peptide, has an ε of ˜300 M^−1cm^−1). For peptides containing non-natural amino acids with suspected chromophoric properties (i.e. NorHar, 4PhenylPro, 3Pal, 4Pal, Tic, 4GuanPhe, 4,4-BPAI, 3,3-DPA, 1NAI, 2NAI, 4BenzylPro, Ind) concentrations were determined by weighing the powder and dissolving the peptide in a defined quantity of water.
# [2] = Plasma stability / fragment profiling Method #2 (MALDI-TOF, 95% plasma), human plasma; type: in vitro ADME
# Protocol: To obtain stability data more rapidly, peptides were also assessed in 95% plasma. Here, PBS was omitted, and a 1 mM peptide stock (in DMSO) was directly diluted into plasma (i.e. 2.5 uL stock into 47.5 uL plasma), giving a final concentration of 50 uM. 5 uL samples were taken at appropriate time points and frozen at −80 deg C. For analysis, the samples were defrosted, mixed with 15 uL of 1:1 acetonitrile:methanol, and centrifuged at 13 k for 5 min. 5 uL of the peptide-containing supernatant was aspirated and mixed with 30 mM ammonium bicarbonate in a 1:1 mixture of acetonitrile:H2O. 1 uL of this was then spotted on the MALDI plate and analysed as described above. As above, it should be noted that this is a qualitative assay serves to detect relative changes in plasma stability.
# Ac-06-34-18(TMB)-NH2 Phe2 Tyr4 (referred to as wild type peptide) was subsequently subjected to human plasma, and analysed for fragments to appear over time. This was compared to the degradation profile observed in human plasma using the NMe-Arg5 derivative of 06-34-18 (FIGS. 18a and 18b). Fragmentation was determined according to Method #2.
# [3] = Plasma stability profiling Method #1 (MALDI-TOF, 35% plasma), rat plasma; type: in vitro ADME; settings: method #1
# Method in brief: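 Qualitative test: 200 µM peptide incubated at 37 °C in 35% rat or human citrated plasma supplemented with PBS, sampled at 0, 3, 24 h then daily up to 10 days. Parent mass tracked by MALDI-TOF; value is time until parent peptide no longer detectable.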
# [4] = Quantitative plasma stability Method #3 (LC-MS, 95% plasma), rat plasma; type: in vitro ADME; settings: method #3
# Protocol: To obtain plasma stability quantitatively, peptide stock solutions (1 mM in DMSO) were shipped to Biofocus, UK, who performed the analysis. Peptides were diluted to 100 uM with water, and diluted 1:20 in plasma (5 uM final concentration, with the plasma at 95%), sampled as appropriate, precipitated as above, and quantified using a Waters Xevo TQ-MS.
# rat plasma Kallikrein [5] = biological target: T2, rat plasma Kallikrein; settings: read-out: Ki (nM) (rat kallikrein); Table 1; cited from earlier work
# [6] = Table 1; Method #3; cited from earlier work
# [7] = Intravenous pharmacokinetics in Sprague Dawley rats; type: in vivo; settings: rat
# Protocol: Peptides were applied as intravenous boli in PBS-buffered solution at 1.02 mg/mL (containing 2.9% DMSO) at 5.2 mg/kg to Sprague Dawley rats, and serial blood samples were taken from each animal via temporary indwelling tall vein cannulae at 5, 10, 20, 30, 60, 120, and 240 minutes post dose, and transferred to EDTA tubes for plasma generation. Data was acquired for peptide “all D Ac-06-34-18” from 3 rats, for “Ac-(06-34-18) Phe2 Aze3 Tyr4 HArg5 Ala(ψCH2NH)6” from two rats, and for “Ac-(06-34-18) Phe2 Aze3 Tyr4 HArg5 D-Asp9” from two rats.
# Plasma samples were then treated with 3 volumes of a 1:1 mixture of acetonitrile and methanol, precipitated proteins were removed by centrifugation, and the supernatant was analysed by UPLC-MS/MS.
# Quantification for peptide content in the samples was by reference to a calibration line prepared in control rat plasma. Pharmacokinetic parameters were determined by non-compartmental analysis using the software package PK Solutions 2.0 from Summit Research Services.
# [8] = Table 24a, residue 6 modification in the context of Ac-(06-34-18) Phe2 Tyr4, read-out: Ki (nM) Ac-(06-34-18) Phe2 Tyr4
# T1 sequence (P03952 20-638): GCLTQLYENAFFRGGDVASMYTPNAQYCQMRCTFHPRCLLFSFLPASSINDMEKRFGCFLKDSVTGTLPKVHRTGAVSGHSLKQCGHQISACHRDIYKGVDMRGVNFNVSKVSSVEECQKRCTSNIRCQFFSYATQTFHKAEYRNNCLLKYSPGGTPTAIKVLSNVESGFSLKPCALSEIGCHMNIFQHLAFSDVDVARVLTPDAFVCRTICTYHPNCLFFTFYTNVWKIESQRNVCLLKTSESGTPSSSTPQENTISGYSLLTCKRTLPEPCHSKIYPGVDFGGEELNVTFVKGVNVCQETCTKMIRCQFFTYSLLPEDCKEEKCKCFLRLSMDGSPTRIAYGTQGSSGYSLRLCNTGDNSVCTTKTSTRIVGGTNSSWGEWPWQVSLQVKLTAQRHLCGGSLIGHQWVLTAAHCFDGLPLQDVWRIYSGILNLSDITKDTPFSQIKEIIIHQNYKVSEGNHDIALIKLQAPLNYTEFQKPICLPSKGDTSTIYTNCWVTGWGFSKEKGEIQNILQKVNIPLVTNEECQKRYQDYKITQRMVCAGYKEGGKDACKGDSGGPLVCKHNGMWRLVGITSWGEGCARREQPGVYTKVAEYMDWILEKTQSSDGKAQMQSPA
# T2 sequence (P14272 391-638 limits assumed): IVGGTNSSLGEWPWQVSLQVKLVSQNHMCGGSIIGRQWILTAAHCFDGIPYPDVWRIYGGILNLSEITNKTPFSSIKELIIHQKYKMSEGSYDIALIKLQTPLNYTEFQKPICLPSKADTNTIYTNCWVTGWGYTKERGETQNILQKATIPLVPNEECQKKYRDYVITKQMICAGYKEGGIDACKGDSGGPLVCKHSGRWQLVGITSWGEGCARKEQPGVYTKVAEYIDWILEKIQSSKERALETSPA
compound,measurement,setting,value
CC(=O)N[C@H]1CSCc2cc3cc(c2)CSC[C@H](NC(=O)[C@H](CCCNC(=N)N)NC(=O)[C@H](Cc2ccc(O)cc2)NC(=O)[C@@H]2CCCN2C(=O)[C@H](Cc2ccccc2)NC(=O)[C@H](CO)NC1=O)C(=O)N[C@@H](CC(C)C)C(=O)N[C@@H](Cc1c[nH]cn1)C(=O)N[C@@H](CCC(N)=O)C(=O)N[C@H](CC(=O)O)C(=O)N[C@@H](CC(C)C)C(=O)N[C@H](C(N)=O)CSC3 [Ac-(06-34-18) Phe2 Tyr4 D-Asp9] (Ac-CSFPYRCLHQ[dD]LC-NH2; linker 1-7-13 via TBMB),reduction in potency/affinity compared to wildtype,human plasma Kallikrein,9 fold
same,Ki,"human plasma Kallikrein; Table 3b, D-amino acid scan in Loop2, read-out: Ki",3.89 nM
same,F (Kivar/KiWT),"human plasma Kallikrein; Table 3b, ratio of Ki to wild type",9
same,Ki,human plasma Kallikrein; read-out: Ki / affinity to human Kallikrein,4 nM
same,Ki,rat plasma Kallikrein [1],32 nM
same,Fragments (human plasma),"[2]; Table 3b, peptide fragments observed after incubation in human plasma","-R, -FPYR"
CC(=O)N[C@H]1CSCc2cc3cc(c2)CSC[C@H](NC(=O)[C@H](CCCNC(=N)N)NC(=O)[C@H](Cc2ccc(O)cc2)NC(=O)[C@@H]2CCCN2C(=O)[C@H](Cc2ccccc2)NC(=O)[C@H](CO)NC1=O)C(=O)N[C@@H](c1ccccc1)C(=O)N[C@@H](Cc1c[nH]cn1)C(=O)N[C@@H](CCC(N)=O)C(=O)N[C@@H](CC(=O)O)C(=O)N[C@@H](CC(C)C)C(=O)N[C@H](C(N)=O)CSC3 [Ac-(06-34-18) Phe2 Tyr4 Phg6] (Ac-CSFPYRC[Phg]HQDLC-NH2; linker 1-7-13 via TBMB),Ki,human plasma Kallikrein; [8],0.3 nM
same,Ki,rat plasma Kallikrein [1],7.23 nM
CC(=O)N[C@H]1CSCc2cc3cc(c2)CSC[C@H](NC(=O)[C@H](CCCNC(=N)N)NC(=O)[C@H](Cc2ccc(O)cc2)NC(=O)[C@@H]2CCCN2C(=O)[C@H](Cc2ccccc2)NC(=O)[C@H](CO)NC1=O)C(=O)N[C@@H](C(C)(C)C)C(=O)N[C@@H](Cc1c[nH]cn1)C(=O)N[C@@H](CCC(N)=O)C(=O)N[C@@H](CC(=O)O)C(=O)N[C@@H](CC(C)C)C(=O)N[C@H](C(N)=O)CSC3 [Ac-(06-34-18) Phe2 Tyr4 tBuGly6] (Ac-CSFPYRC[Tle]HQDLC-NH2; linker 1-7-13 via TBMB),Ki,human plasma Kallikrein; [8],3.76 nM
same,Ki,rat plasma Kallikrein [1],218 nM
same,degradation / fragments in human plasma (in words),[2]; running text and figure legends,only removal of Arg5 in the first loop
CC(=O)N[C@H]1CSCc2cc3cc(c2)CSC[C@H](NC(=O)[C@H](CCCNC(=N)N)NC(=O)[C@H](C)NC(=O)[C@@H]2CCCN2C(=O)[C@H](Cc2c[nH]c4ccccc24)NC(=O)[C@H](CO)NC1=O)C(=O)N[C@@H](CC(C)C)C(=O)N[C@@H](Cc1c[nH]cn1)C(=O)N[C@@H](CCC(N)=O)C(=O)N[C@@H](CC(=O)O)C(=O)N[C@@H](CC(C)C)C(=O)N[C@H](C(N)=O)CSC3 [Ac-(06-34-18) wildtype],observability window / rat plasma stability profile,[3],about 2 days
same,t1/2 (hrs) in rat plasma,[4]; Table 15,2.3 h
same,half-life at 5 uM,"[4]; rat, plasma, read-out: half-life in rat plasma (t1/2) (converted)",2.3 h
same,Ki,rat plasma Kallikrein [5],1.8 nM
same,t1/2 (hrs) in rat plasma,[6],2.3 h
"CC(=O)N[C@@H]1CSCc2cc3cc(c2)CSC[C@@H](NC(=O)[C@@H](CCCNC(=N)N)NC(=O)[C@@H](C)NC(=O)[C@H]2CCCN2C(=O)[C@@H](Cc2c[nH]c4ccccc24)NC(=O)[C@@H](CO)NC1=O)C(=O)N[C@H](CC(C)C)C(=O)N[C@H](Cc1c[nH]cn1)C(=O)N[C@H](CCC(N)=O)C(=O)N[C@H](CC(=O)O)C(=O)N[C@H](CC(C)C)C(=O)N[C@@H](C(N)=O)CSC3 [All D 06-34-18, Ac-cswparclhqdlc-NH2(TMB), reference compound]",potency / binding to kallikrein (in words),human plasma Kallikrein,lacks any potency
same,half-life,"[7]; Sprague Dawley, in vivo, intravenous bolus 5.2 mg/kg, read-out: elimination half-life",0.9 h
same,Clearance based on AUC0-∞,[7]; intravenous,4.5 mL/min/kg
same,Volume of distribution based on AUC0-∞,[7]; intravenous,0.3 L/kg

# Source: patent publication US10118947B2, “Modulation of structured polypeptide specificity” (BICYCLE THERAPEUTICS LIMITED, priority 2013, dated 2018)
